Experimental data reported in patent publication US12281301B2, “Sequencing-based proteomics” (THE BROAD INSTITUTE, INC., priority 2018, dated 2025).

Tested on: THP-1 monocytes
Assay: PATTERNS protein quantification in tagged THP-1 monocyte library
Type: cell-based, human
Details: 6 hours treatment; out of 400 proteins represented; including FOS and EGR1
Procedure: RNP-mediated gene tagging in other cell lines. Non-confluent cells were trypsinized and/or washed and adjusted to a density 2E7/ml in warm OptiMEM. 125 μl of cell suspension were mixed with 125 μl OptiMEM containing 2.5 μg donor DNA, 2.5 μg Cas9 protein, and 250 ng sgRNA. The mix was incubated for 15 minutes at room temperature, and transferred to a 4 mm electroporation cuvette (BioRad). Cells were electroporated on a Gene Pulser Xcell Electroporation System (BioRad) using the following settings: 265V, 975 μF, and 720 Ohm. Cells were recovered immediately in 5 ml of pre-warmed growth medium. For library generation in THP-1 and SKMEL28 cells, the above protocol was scaled up 10-fold.
FACS sorting. […]
Analysis of Silent Barcode Sequencing data. Silent barcode bases were extracted from raw sequencing reads and were converted to a 28-bit integer value. Using a barcode lookup table, reads were collapsed into target loci, and a matrix of screening conditions vs. sorted bins was incremented for every successfully mapped read. Total read counts in every position of the matrix were normalized by the ratio of sorted cells (from control sort for simplification) divided by total reads with correctly mapped 10 bp reverse primer sequence, which helped to even out PCR saturation artifacts. […] All data were analyzed using a custom JavaScript-based analysis tool that is available online.

## CCCCCCCCCCCCCC(=O)O[C@@H]1[C@@H](C)[C@@]2(O)[C@@H](C=C(CO)C[C@]3(O)C(=O)C(C)=C[C@@H]23)[C@@H]2C(C)(C)[C@]12OC(C)=O [PMA, Phorbol 12-Myristate 13-Acetate]
  proteins whose levels were altered, by PATTERNS: four proteins
